Measurements from US10662229B2, “Spider venom peptides and methods of use for modulating sodium channels” (priority 2016, dated 2020).
Where a SMILES comes first, the peptide text is derived from it. Bridges are numbered along the chain shown (N, C = ends).

Key:
[1] = tested on: motor performance of mice; experiment: Motor assessment, Parallel Rod Floor Test; type: in vivo; conditions: i.p.; Pnc1a 3 mg/kg, PF-04856254 30 mg/kg, CNV1014802 30 mg/kg, GpTx-1 0.1 mg/kg, gabapentin 100 mg/kg
Protocol: (§1) For behavioural assessment adult male C57BL/6J mice aged 6-8 weeks were used. Animals were housed in groups of 3 or 4 per cage, under 12 h light-dark cycles and had standard rodent chow and water ad libitum.
Motor performance was assessed using the Parallel Rod Floor Test and analyzed using ANY-Maze software (Stoelting Co., version 4.70, Wood Dale, Ill., USA). […] Mice were then placed in the Parallel Rod Floor Test apparatus, and the distance travelled (m) and number of foot slips were recorded over 1 min using the ANY-Maze software. The ataxia index was calculated by dividing the number of foot slips by the distance travelled (m).

[2] = target: T1, hNav1.1 (Homo sapiens, UniProt P35498); experiment: FLIPR membrane potential assay, hNav1.1; type: cell-based; conditions: for Selectivity for Nav1.7, Nav subtype 1.1: membrane potential assay
T1 construct: host or cells: HEK293
How it was run: (§2)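 HEK293 cells stably expressing each human Nav subtype were plated 48 h ahead and loaded with red membrane potential dye for 30 min at 37° C.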

[3] = target: T2, hNav1.2 (Homo sapiens, UniProt Q99250); experiment: FLIPR membrane potential assay, hNav1.2; type: cell-based; conditions: for Selectivity for Nav1.7, Nav subtype 1.2: membrane potential assay
T2 construct: host or cells: HEK293
How it was run: as §2

[4] = target: T3, hNav1.3 (Homo sapiens, UniProt Q9NY46); experiment: FLIPR membrane potential assay, hNav1.3; type: cell-based; conditions: for Selectivity for Nav1.7, Nav subtype 1.3: membrane potential assay
T3 construct: host or cells: HEK293
How it was run: as §2

[5] = target: T4, hNav1.4 (Homo sapiens, UniProt P35499); experiment: FLIPR membrane potential assay, hNav1.4; type: cell-based; conditions: for Selectivity for Nav1.7, Nav subtype 1.4: membrane potential assay
T4 construct: host or cells: HEK293
How it was run: as §2

[6] = target: T5, hNav1.5 (Homo sapiens, UniProt Q14524); experiment: FLIPR membrane potential assay, hNav1.5; type: cell-based; conditions: for Selectivity for Nav1.7, Nav subtype 1.5: membrane potential assay
T5 construct: host or cells: HEK293
How it was run: as §2

[7] = target: T6, hNav1.6 (Homo sapiens, UniProt Q9UQD0); experiment: FLIPR membrane potential assay, hNav1.6; type: cell-based; conditions: for Selectivity for Nav1.7, Nav subtype 1.6: membrane potential assay
T6 construct: host or cells: HEK293
How it was run: as §2

[8] = target: T7, hNav1.7 (Homo sapiens, UniProt Q15858); experiment: FLIPR membrane potential assay, hNav1.7; type: cell-based; conditions: for Selectivity for Nav1.7, Nav subtype 1.7: membrane potential assay, reference subtype
T7 construct: host or cells: HEK293
How it was run: as §2

[9] = target: T8, hNav1.8 (Homo sapiens, UniProt Q9Y5Y9); experiment: FLIPR membrane potential assay, hNav1.8; type: cell-based; conditions: for Selectivity for Nav1.7, Nav subtype 1.8: membrane potential assay
T8 construct: host or cells: HEK293
How it was run: as §2

[10] = target: T7, hNav1.7; experiment: Automated patch clamping (QPatch-16), hNav1.7; type: cell-based; conditions: 100 nM
Protocol: HEK293 cells stably expressing hNav1.1-1.7 or CHO cells stably expressing hNav1.8 (as described in Example 3 above) were cultured in a T-175 flask in selection antibiotic-free media at 37° C. Cells were grown to 70-80% confluence and harvested using Detachin (Bio-Scientific, NSW, Australia) at 37° C. for 2 min. Dissociated cells were then resuspended in Ex-Cell ACF CHO Medium with HEPES (25 mM; Sigma-Aldrich Co.) and allowed to recover on the QStirrer for 30 min.
The extracellular solution contained in mM: NaCl 145, KCl 4, CaCl2 2, MgCl2 1, HEPES 10 and glucose 10. The pH was adjusted to 7.4 with NaOH and osmolarity was adjusted with sucrose to 305 mOsm. The intracellular solution contained in mM: CsF 140, ethylene glycol tetraacetic acid (EGTA)/CsOH 1/5, HEPES 10 and NaCl 10. The pH was adjusted to 7.3 with CsOH and osmolarity adjusted with sucrose to 320 mOsm.
Whole-cell patch-clamp experiments were performed on a QPatch-16 automated electrophysiology platform (Sophion Bioscience, Ballerup, Denmark) using 16-channel planar patch chip plates (QPlates; Sophion Bioscience) with a patch hole diameter of 1 μm and resistance of 2±0.02 MΩ with the following parameters: positioning pressure −60 mbar, minimum seal resistance 0.1 GΩ, holding potential −100 mV, holding pressure −20 mbar.
Whole-cell currents were filtered at 5 kHz and acquired at 25 kHz.
The current-voltage (IV) curve was constructed with a holding potential of −80 mV followed by a pre-pulse of −100 mV for 50 ms and a series of 50 ms step pulses that ranged from −80 to 50 mV in 5 mV increments before returning to a holding potential of −80 mV. Voltage-dependence of activation was determined as normalized Nav conductance (GNa) using: GNa=INa/(Vmemb−Vrev), where Vmemb is the membrane potential and Vrev is the reversal potential for each cell. The voltage of activation data was fitted to a Boltzmann sigmoidal curve using GraphPad Prism, version 6.0.

[11] = tested on: OD1-induced spontaneous pain behaviours in mice; experiment: OD1 model of spontaneous pain behaviours; type: in vivo; conditions: intraplantar 1 μM, co-injected with OD1
Protocol: as §1
OD1 was diluted in phosphate-buffered saline/0.1% BSA (300 nM) and administered by shallow subcutaneous (intraplantar) injection to the left hind paw of mice in a volume of 40 μL under light isoflurane (3%) anesthesia. Mice were then placed individually into polyvinyl boxes (10×10×10 cm), and spontaneous pain behavior (licks and flinches) was counted by an investigator unaware of the treatments received from video recordings for 10 min post-injection.

T5 sequence (Q14524 whole entry): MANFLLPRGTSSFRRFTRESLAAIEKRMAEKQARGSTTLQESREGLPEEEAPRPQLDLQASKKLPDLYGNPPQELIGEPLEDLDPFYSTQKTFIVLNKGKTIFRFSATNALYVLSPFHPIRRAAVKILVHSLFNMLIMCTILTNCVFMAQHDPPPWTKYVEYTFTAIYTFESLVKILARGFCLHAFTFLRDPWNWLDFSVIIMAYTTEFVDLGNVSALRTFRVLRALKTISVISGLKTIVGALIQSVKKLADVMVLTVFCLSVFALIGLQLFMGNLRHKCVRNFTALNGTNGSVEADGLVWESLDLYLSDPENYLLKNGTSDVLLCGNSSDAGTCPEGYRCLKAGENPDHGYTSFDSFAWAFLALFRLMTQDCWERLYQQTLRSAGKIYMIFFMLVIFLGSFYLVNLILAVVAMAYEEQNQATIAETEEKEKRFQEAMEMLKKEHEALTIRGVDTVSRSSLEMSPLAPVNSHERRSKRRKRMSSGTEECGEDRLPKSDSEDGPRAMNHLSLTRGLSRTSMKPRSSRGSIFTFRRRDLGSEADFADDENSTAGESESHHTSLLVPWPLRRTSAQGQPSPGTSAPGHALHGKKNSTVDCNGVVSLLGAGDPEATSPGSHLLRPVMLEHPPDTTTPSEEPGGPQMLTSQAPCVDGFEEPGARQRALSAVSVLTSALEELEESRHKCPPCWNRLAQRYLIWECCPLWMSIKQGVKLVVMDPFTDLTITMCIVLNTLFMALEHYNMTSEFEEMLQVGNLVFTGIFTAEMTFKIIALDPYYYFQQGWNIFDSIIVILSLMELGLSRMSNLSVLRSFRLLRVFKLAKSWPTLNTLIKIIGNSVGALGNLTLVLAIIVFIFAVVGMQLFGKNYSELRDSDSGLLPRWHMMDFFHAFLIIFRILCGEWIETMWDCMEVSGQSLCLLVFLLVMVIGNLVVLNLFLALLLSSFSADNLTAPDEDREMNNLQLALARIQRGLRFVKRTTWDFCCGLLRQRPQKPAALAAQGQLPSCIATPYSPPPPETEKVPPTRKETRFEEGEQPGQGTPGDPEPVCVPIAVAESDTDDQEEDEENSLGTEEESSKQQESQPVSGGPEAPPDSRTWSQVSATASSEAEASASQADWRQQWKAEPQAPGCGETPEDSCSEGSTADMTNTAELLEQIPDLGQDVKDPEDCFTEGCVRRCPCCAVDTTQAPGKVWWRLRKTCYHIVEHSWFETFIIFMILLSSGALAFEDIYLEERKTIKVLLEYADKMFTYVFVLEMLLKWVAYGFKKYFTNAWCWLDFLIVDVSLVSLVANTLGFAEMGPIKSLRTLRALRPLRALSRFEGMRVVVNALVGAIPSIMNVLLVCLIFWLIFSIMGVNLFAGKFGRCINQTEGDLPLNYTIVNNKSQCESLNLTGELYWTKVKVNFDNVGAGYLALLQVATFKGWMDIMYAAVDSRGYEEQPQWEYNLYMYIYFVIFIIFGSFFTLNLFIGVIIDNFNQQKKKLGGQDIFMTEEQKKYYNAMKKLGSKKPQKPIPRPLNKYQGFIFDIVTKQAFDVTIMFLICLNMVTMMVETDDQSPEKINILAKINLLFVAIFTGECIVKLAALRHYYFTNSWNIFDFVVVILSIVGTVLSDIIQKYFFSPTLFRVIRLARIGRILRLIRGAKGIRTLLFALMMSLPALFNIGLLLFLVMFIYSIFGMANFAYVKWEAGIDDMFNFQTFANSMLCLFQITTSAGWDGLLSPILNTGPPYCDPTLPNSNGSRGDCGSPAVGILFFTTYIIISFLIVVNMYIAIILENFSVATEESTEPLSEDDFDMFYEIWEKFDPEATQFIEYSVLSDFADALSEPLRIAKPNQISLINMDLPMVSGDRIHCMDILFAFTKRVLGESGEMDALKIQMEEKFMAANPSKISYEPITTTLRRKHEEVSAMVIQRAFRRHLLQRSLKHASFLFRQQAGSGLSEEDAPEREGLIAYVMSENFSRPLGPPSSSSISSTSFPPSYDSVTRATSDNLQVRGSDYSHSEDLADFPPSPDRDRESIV
T8 sequence (Q9Y5Y9 whole entry): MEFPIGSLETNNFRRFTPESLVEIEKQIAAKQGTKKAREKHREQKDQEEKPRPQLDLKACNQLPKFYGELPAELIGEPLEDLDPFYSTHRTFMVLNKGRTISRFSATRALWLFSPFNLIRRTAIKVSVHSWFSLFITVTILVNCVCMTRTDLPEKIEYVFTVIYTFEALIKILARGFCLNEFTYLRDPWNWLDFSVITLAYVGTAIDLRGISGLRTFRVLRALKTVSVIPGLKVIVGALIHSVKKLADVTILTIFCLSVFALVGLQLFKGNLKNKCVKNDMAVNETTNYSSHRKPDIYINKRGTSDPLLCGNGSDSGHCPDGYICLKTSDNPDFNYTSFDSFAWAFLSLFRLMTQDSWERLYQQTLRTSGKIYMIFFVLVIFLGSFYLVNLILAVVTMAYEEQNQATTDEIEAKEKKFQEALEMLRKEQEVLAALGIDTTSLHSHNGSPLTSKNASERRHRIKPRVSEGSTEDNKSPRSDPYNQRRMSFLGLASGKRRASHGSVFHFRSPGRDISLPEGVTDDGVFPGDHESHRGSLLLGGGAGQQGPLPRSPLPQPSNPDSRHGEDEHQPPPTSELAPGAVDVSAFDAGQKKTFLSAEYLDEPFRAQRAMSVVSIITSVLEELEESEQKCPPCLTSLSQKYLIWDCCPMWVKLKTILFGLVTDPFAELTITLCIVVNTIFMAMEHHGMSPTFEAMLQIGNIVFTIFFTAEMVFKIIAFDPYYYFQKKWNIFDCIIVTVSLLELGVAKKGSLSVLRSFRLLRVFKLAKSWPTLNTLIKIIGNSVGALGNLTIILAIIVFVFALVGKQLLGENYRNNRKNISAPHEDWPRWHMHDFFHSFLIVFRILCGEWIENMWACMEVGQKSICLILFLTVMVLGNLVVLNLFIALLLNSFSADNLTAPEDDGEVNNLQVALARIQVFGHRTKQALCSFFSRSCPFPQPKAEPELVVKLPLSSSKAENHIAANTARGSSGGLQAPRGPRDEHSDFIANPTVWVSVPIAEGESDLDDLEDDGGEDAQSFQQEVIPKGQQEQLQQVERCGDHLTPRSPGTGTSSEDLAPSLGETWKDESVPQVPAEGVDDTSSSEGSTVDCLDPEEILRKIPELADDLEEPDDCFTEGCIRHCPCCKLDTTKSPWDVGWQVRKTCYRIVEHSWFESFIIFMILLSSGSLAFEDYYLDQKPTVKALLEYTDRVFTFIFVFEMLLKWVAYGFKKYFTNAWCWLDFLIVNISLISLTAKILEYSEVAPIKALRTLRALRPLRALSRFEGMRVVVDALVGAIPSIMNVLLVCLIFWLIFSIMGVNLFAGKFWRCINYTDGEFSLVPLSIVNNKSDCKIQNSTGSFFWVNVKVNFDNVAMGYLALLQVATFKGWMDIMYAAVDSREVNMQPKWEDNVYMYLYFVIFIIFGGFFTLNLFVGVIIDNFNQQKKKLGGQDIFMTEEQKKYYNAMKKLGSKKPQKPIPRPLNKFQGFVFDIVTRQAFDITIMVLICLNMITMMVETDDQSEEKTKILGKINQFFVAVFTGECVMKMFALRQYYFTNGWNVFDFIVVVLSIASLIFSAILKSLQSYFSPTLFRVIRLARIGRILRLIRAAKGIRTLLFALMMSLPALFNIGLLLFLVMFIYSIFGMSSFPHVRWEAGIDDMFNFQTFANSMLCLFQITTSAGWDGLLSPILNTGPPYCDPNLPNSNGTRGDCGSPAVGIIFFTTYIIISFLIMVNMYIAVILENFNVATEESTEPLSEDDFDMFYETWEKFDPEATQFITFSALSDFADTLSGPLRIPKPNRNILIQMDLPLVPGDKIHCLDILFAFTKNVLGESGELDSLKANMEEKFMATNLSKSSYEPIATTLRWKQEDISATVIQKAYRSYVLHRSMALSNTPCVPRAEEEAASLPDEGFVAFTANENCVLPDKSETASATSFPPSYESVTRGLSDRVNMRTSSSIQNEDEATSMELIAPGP

Compound | ataxia index (foot slips per metre travelled) compared to vehicle control [1] | IC50 [2] [µM] | Selectivity for Nav1.7, Nav subtype 1.1 [2] | IC50 [3] [µM] | Selectivity for Nav1.7, Nav subtype 1.2 [3] | IC50 [4] [µM] | Selectivity for Nav1.7, Nav subtype 1.3 [4] | IC50 [5] [µM] | Selectivity for Nav1.7, Nav subtype 1.4 [5] | IC50 [6] [µM] | Selectivity for Nav1.7, Nav subtype 1.5 [6] | IC50 [7] [µM] | Selectivity for Nav1.7, Nav subtype 1.6 [7] | IC50 [8] [µM] | Selectivity for Nav1.7, Nav subtype 1.7 [8] | IC50 [9] [µM] | Selectivity for Nav1.7, Nav subtype 1.8 [9] | effect on the current voltage (IV) relationship of Nav1.7 [10] | OD1-induced pain behaviours, compared to an equivalent concentration of Pnc1a [11]
NC(=O)[C@@H]1CC[C@H](c2ccc(OCc3ccccc3F)cc2)N1 [CNV1014802, raxatrigine] | no significant effect | – | – | – | – | – | – | – | – | – | – | – | – | – | – | – | – | – | –
CSCC[C@@H]1NC(=O)[C@H](Cc2ccc(O)cc2)NC(=O)[C@H](CCCNC(=N)N)NC(=O)[C@@H](NC(=O)[C@@H](N)CC(=O)O)CSSC[C@@H]2NC(=O)[C@@H]3CSSC[C@@H](C(=O)N[C@@H](C)C(=O)N[C@@H](Cc4c[nH]c5ccccc45)C(=O)N[C@@H](CC(=O)O)C(=O)N[C@@H](Cc4ccccc4)C(=O)N[C@H](C(=O)N[C@@H](Cc4ccccc4)C(=O)N[C@H](C(=O)O)[C@@H](C)O)[C@@H](C)O)NC(=O)[C@H](Cc4ccc(O)cc4)NC(=O)[C@H](CCCCN)NC(=O)[C@H](CCSC)NC(=O)[C@H](CC(=O)O)NC(=O)[C@H](CCCNC(=N)N)NC(=O)[C@H](CCCCN)NC(=O)[C@H](CSSC[C@H](NC(=O)[C@H](CC(=O)O)NC(=O)CNC(=O)[C@H](Cc4ccccc4)NC1=O)C(=O)N[C@@H](CCC(=O)O)C(=O)N[C@@H](CCCCN)C(=O)N[C@@H](CC(=O)O)C(=O)N[C@@H](CCC(=O)O)C(=O)N[C@@H](CC(=O)O)C(=O)N3)NC(=O)CNC(=O)[C@H](CC(C)C)NC(=O)[C@H](Cc1c[nH]cn1)NC(=O)[C@H](CCCCN)NC2=O [[K24D]Pnc1a] (H-DCRYMFGDCEKDEDCCKHLGCKRDMKYCAWDFTFT-OH; disulfide 2-16, 9-21, 15-28) | – | 32 | 63 | 38 | 7 | 20 | 39 | 12 | 24 | > 30 | 59 | > 30 | 14 | 0.51 | 1 | > 30 | 40 | minimal effect | –
CSCC[C@@H]1NC(=O)[C@H](Cc2ccc(O)cc2)NC(=O)[C@H](CCCNC(=N)N)NC(=O)[C@@H](NC(=O)[C@@H](N)CC(=O)O)CSSC[C@@H]2NC(=O)[C@@H]3CSSC[C@@H](C(=O)N[C@@H](C)C(=O)N[C@@H](C)C(=O)N[C@@H](CC(=O)O)C(=O)N[C@@H](Cc4ccccc4)C(=O)N[C@H](C(=O)N[C@@H](Cc4ccccc4)C(=O)N[C@H](C(=O)O)[C@@H](C)O)[C@@H](C)O)NC(=O)[C@H](Cc4ccc(O)cc4)NC(=O)[C@H](CCCCN)NC(=O)[C@H](CCSC)NC(=O)[C@H](CCCCN)NC(=O)[C@H](CCCNC(=N)N)NC(=O)[C@H](CCCCN)NC(=O)[C@H](CSSC[C@H](NC(=O)[C@H](CC(=O)O)NC(=O)CNC(=O)[C@H](Cc4ccccc4)NC1=O)C(=O)N[C@@H](CCC(=O)O)C(=O)N[C@@H](CCCCN)C(=O)N[C@@H](CC(=O)O)C(=O)N[C@@H](CCC(=O)O)C(=O)N[C@@H](CC(=O)O)C(=O)N3)NC(=O)CNC(=O)[C@H](CC(C)C)NC(=O)[C@H](Cc1c[nH]cn1)NC(=O)[C@H](CCCCN)NC2=O [[W30A]Pnc1a] (H-DCRYMFGDCEKDEDCCKHLGCKRKMKYCAADFTFT-OH; disulfide 2-16, 9-21, 15-28) | – | 15 | 2 | 24 | 3 | 11 | 2 | 12 | 2 | 6 | 0.9 | > 30 | 4 | 7 | 1 | > 30 | 4 | – | –
CSCC[C@@H]1NC(=O)[C@H](C)NC(=O)[C@H](CCCNC(=N)N)NC(=O)[C@@H](NC(=O)[C@@H](N)CC(=O)O)CSSC[C@@H]2NC(=O)[C@@H]3CSSC[C@@H](C(=O)N[C@@H](C)C(=O)N[C@@H](Cc4c[nH]c5ccccc45)C(=O)N[C@@H](CC(=O)O)C(=O)N[C@@H](Cc4ccccc4)C(=O)N[C@H](C(=O)N[C@@H](Cc4ccccc4)C(=O)N[C@H](C(=O)O)[C@@H](C)O)[C@@H](C)O)NC(=O)[C@H](Cc4ccc(O)cc4)NC(=O)[C@H](CCCCN)NC(=O)[C@H](CCSC)NC(=O)[C@H](CCCCN)NC(=O)[C@H](CCCNC(=N)N)NC(=O)[C@H](CCCCN)NC(=O)[C@H](CSSC[C@H](NC(=O)[C@H](CC(=O)O)NC(=O)CNC(=O)[C@H](Cc4ccccc4)NC1=O)C(=O)N[C@@H](CCC(=O)O)C(=O)N[C@@H](CCCCN)C(=O)N[C@@H](CC(=O)O)C(=O)N[C@@H](CCC(=O)O)C(=O)N[C@@H](CC(=O)O)C(=O)N3)NC(=O)CNC(=O)[C@H](CC(C)C)NC(=O)[C@H](Cc1c[nH]cn1)NC(=O)[C@H](CCCCN)NC2=O [[Y4A]Pnc1a] (H-DCRAMFGDCEKDEDCCKHLGCKRKMKYCAWDFTFT-OH; disulfide 2-16, 9-21, 15-28) | – | 17 | 19 | 8 | 8 | 20 | 22 | 12 | 12 | 18 | 20 | > 30 | >30 | 0.934 | 1 | > 30 | >30 | – | –
NCC1(CC(=O)O)CCCCC1 [gabapentin] | significant increase | – | – | – | – | – | – | – | – | – | – | – | – | – | – | – | – | – | –
ProTxII: Nav1.7 selective inhibitor (Peptides International) [reference compound] | – | – | – | – | – | – | – | – | – | – | – | – | – | – | – | – | – | – | only partially reversed
